System: 171881-019-R-J1-PDC tumor spheroids, viability
Assay: Anticancer human tumor 171881-019-R-J1-PDC patient-derived invasive breast carcinoma cell line growth inhibition [GQUAD]
Details: spheroids with HUVEC and MSC; for IC50: curve of first compound; for viability, T/C: stronger effect = lower value
In short: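 Multi-cell-type spheroids of tumor cells with HUVEC and mesenchymal stem cells, treated with drug combinations. Concentrations descend in half-log steps from near clinical Cmax, or from 10 microM where Cmax is unknown; viability read-out.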

[1] = second compound 0.0316 µM, first compound 0.0316 µM
[2] = second compound 0.0316 µM, first compound 0.1 µM
[3] = second compound 0.0316 µM, first compound 0.316 µM
[4] = second compound 0.0316 µM, first compound 1 µM
[5] = second compound 0.0316 µM, first compound 3.16 µM
[6] = second compound 0.0316 µM, first compound 10 µM
[7] = second compound 0.1 µM, first compound 0.0316 µM
[8] = second compound 0.1 µM, first compound 0.1 µM
[9] = second compound 0.1 µM, first compound 0.316 µM
[10] = second compound 0.1 µM, first compound 1 µM
[11] = second compound 0.1 µM, first compound 3.16 µM
[12] = second compound 0.1 µM, first compound 10 µM
[13] = second compound 0.316 µM, first compound 0.0316 µM
[14] = second compound 0.316 µM, first compound 0.1 µM
[15] = second compound 0.316 µM, first compound 0.316 µM
[16] = second compound 0.316 µM, first compound 1 µM
[17] = second compound 0.316 µM, first compound 3.16 µM
[18] = second compound 0.316 µM, first compound 10 µM
[19] = second compound 1 µM, first compound 0.0316 µM
[20] = second compound 1 µM, first compound 0.1 µM
[21] = second compound 1 µM, first compound 0.316 µM
[22] = second compound 1 µM, first compound 1 µM
[23] = second compound 1 µM, first compound 3.16 µM
[24] = second compound 1 µM, first compound 10 µM
[25] = second compound 3.16 µM, first compound 0.0316 µM
[26] = second compound 3.16 µM, first compound 0.1 µM
[27] = second compound 3.16 µM, first compound 0.316 µM
[28] = second compound 3.16 µM, first compound 1 µM
[29] = second compound 3.16 µM, first compound 3.16 µM
[30] = second compound 3.16 µM, first compound 10 µM
[31] = second compound 10 µM, first compound 0.0316 µM
[32] = second compound 10 µM, first compound 0.1 µM
[33] = second compound 10 µM, first compound 0.316 µM
[34] = second compound 10 µM, first compound 1 µM
[35] = second compound 10 µM, first compound 3.16 µM
[36] = second compound 10 µM, first compound 10 µM
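Further: spheroids exposed to compounds for 7 days.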
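Wherever viability, T/C is given: 100% = DMSO vehicle control viability.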

`C=CCn1c(=O)c2cnc(Nc3ccc(N4CCN(C)CC4)cc3)nc2n1-c1cccc(C(C)(C)O)n1` + Cc1cnc(CNC(=O)c2c(=O)c3ccc(N4CCCN(C)CC4)nc3n3c2sc2ccccc23)cn1 showed an IC50 (second compound 0.0316 µM) of 652 nM, an IC50 (second compound 0.1 µM) of 541 nM and an IC50 (second compound 0.316 µM) of 428 nM. For the same compound, the IC50 (second compound 1 µM) was 496 nM, the IC50 (second compound 3.16 µM) was 566 nM and the IC50 (second compound 10 µM) was 358 nM. For the same compound, the viability, T/C [1] was 106%, the viability, T/C [2] was 84.2% and the viability, T/C [3] was 74.9%. It also gave a viability, T/C [4] of 36.3%, a viability, T/C [5] of 19.9% and a viability, T/C [6] of 23.3%. For the same compound, the viability, T/C [7] was 72.9%, the viability, T/C [8] was 76% and the viability, T/C [9] was 60.6%. It also gave a viability, T/C [10] of 37.3%, a viability, T/C [11] of 22.6% and a viability, T/C [12] of 22.2%. It also gave a viability, T/C [13] of 72.1%, a viability, T/C [14] of 68.6% and a viability, T/C [15] of 55.7%. The viability, T/C [16] was 34.3%, the viability, T/C [17] was 26.1% and the viability, T/C [18] was 24.8%. It also gave a viability, T/C [19] of 66.5%, a viability, T/C [20] of 60.4% and a viability, T/C [21] of 56.6%. The viability, T/C [22] was 41.3%, the viability, T/C [23] was 31.1% and the viability, T/C [24] was 28.1%. It also gave a viability, T/C [25] of 66.1%, a viability, T/C [26] of 58% and a viability, T/C [27] of 58.5%. It also gave a viability, T/C [28] of 42.3%, a viability, T/C [29] of 36.6% and a viability, T/C [30] of 35.3%. It also gave a viability, T/C [31] of 57.4%, a viability, T/C [32] of 54.6% and a viability, T/C [33] of 50.2%. For the same compound, the viability, T/C [34] was 48.7%, the viability, T/C [35] was 36.4% and the viability, T/C [36] was 36%.

`CC(C)(O)C1CCC(Nc2ccc3ncc(-c4cccc(C(F)(F)F)c4)n3n2)CC1` (centres undefined) + Cc1cnc(CNC(=O)c2c(=O)c3ccc(N4CCCN(C)CC4)nc3n3c2sc2ccccc23)cn1 was tested, and the IC50 (second compound 0.0316 µM) was 1620 nM, the IC50 (second compound 0.1 µM) was 1710 nM and the IC50 (second compound 0.316 µM) was 1470 nM. For the same compound, the IC50 (second compound 1 µM) was 1190 nM, the IC50 (second compound 3.16 µM) was 1070 nM and the IC50 (second compound 10 µM) was 927 nM. The viability, T/C [1] was 95.8%, the viability, T/C [2] was 87.5% and the viability, T/C [3] was 89.5%. For the same compound, the viability, T/C [4] was 69.7%, the viability, T/C [5] was 18.2% and the viability, T/C [6] was 26.9%. For the same compound, the viability, T/C [7] was 88.7%, the viability, T/C [8] was 83.8% and the viability, T/C [9] was 70.9%. For the same compound, the viability, T/C [10] was 73.4%, the viability, T/C [11] was 19% and the viability, T/C [12] was 27.2%. For the same compound, the viability, T/C [13] was 76.5%, the viability, T/C [14] was 76.7% and the viability, T/C [15] was 72%. The viability, T/C [16] was 63.1%, the viability, T/C [17] was 21.9% and the viability, T/C [18] was 25.7%. The viability, T/C [19] was 71.9%, the viability, T/C [20] was 65.2% and the viability, T/C [21] was 72.9%. For the same compound, the viability, T/C [22] was 56.3%, the viability, T/C [23] was 13.6% and the viability, T/C [24] was 18%. It also gave a viability, T/C [25] of 65.4%, a viability, T/C [26] of 60% and a viability, T/C [27] of 63.1%. For the same compound, the viability, T/C [28] was 53.1%, the viability, T/C [29] was 0.32% and the viability, T/C [30] was 0.82%. The viability, T/C [31] was 59.3%, the viability, T/C [32] was 62.5% and the viability, T/C [33] was 58.1%. It also gave a viability, T/C [34] of 49.3%, a viability, T/C [35] of 0.4% and a viability, T/C [36] of 0.62%.

— PubChem BioAssay AID2060498 (Molecular Pharmacology Branch, DTP, NCI, 2025)
